Structures can show the parent of a compound that is named as a salt. Where two headings read alike, the source gives them in different places.
What was measured:
[1] = test system: PAXF PANC-1; test: Cell lines exhibiting drug resistance (IC50); assay type: cell-based
[2] = test system: PAXF 546; test: Cell lines exhibiting drug resistance (IC50); assay type: cell-based
[3] = test system: PAXF 2035; test: Cell lines exhibiting drug resistance (IC50); assay type: cell-based
[4] = test system: PAXF 1986; test: Cell lines exhibiting drug resistance (IC50); assay type: cell-based
[5] = test system: PAXF 2059; test: Cell lines exhibiting drug resistance (IC50); assay type: cell-based
[6] = test system: PAXF 1998; test: Cell lines exhibiting drug resistance (IC50); assay type: cell-based
[7] = test system: PAXF 2005; test: Cell lines exhibiting drug resistance (IC50); assay type: cell-based
[8] = test system: PAXF CAPAN-2; test: Cell lines exhibiting drug resistance (IC50); assay type: cell-based
[9] = test system: PAXF HPAC; test: Cell lines exhibiting drug resistance (IC50); assay type: cell-based
[10] = test system: metastatic pancreatic cancer; conditions: first-line therapy of metastatic pancreatic cancer; cited from earlier work
[11] = test system: pancreatic cancer; conditions: pancreatic cancer patients; P=0.002; cited from earlier work
[12] = test system: unresectable pancreatic cancer; conditions: phase III study; cited from earlier work
[13] = test system: pancreatic cancer; conditions: phase III study, pancreatic cancer patients; cited from earlier work
[14] = test system: metastatic pancreatic cancer; conditions: first-line therapy; cited from earlier work

CC[C@]1(O)C[C@@H]2CN(CCc3c([nH]c4ccccc34)[C@@](C(=O)OC)(c3cc4c(cc3OC)N(C)[C@H]3[C@@](O)(C(N)=O)[C@H](O)[C@]5(CC)C=CCN6CC[C@]43[C@@H]65)C2)C1 [Vindesin sulfate]
IC50 [1]: 5 nM | IC50 [2]: 109 nM

CC[C@]1(O)C[C@@H]2CN(CCc3c([nH]c4ccccc34)[C@@](C(=O)OC)(c3cc4c(cc3OC)N(C)[C@H]3[C@@](O)(C(=O)OC)[C@H](OC(C)=O)[C@]5(CC)C=CCN6CC[C@]43[C@@H]65)C2)C1 [Vinblastine sulfate]
IC50 ([1]; Homo sapiens): 1 nM | IC50 ([2]; Homo sapiens, PAXF546): 71 nM

COc1cccc2c1C(=O)c1c(O)c3c(c(O)c1C2=O)C[C@@](O)(C(=O)CO)C[C@@H]3O[C@H]1C[C@H](N)[C@H](O)[C@H](C)O1 [Doxorubicin HCl]
IC50 [3]: 795 nM | IC50 [4]: 59 nM | IC50 [5]: 131 nM | IC50 [6]: 1230 nM | IC50 ([1]; Homo sapiens): 49 nM | IC50 ([2]; Homo sapiens, PAXF546): 134 nM | IC50 [7]: 251 nM

Nc1ccn([C@@H]2O[C@H](CO)[C@@H](O)[C@@H]2O)c(=O)n1 [Cytarabine]
IC50 ([1]; Homo sapiens): 158 nM | IC50 ([2]; Homo sapiens, PAXF546): 4640 nM

N.N.O=C([O-])C1(C(=O)[O-])CCC1.[Pt+2] [Carboplatin]
IC50 [1]: 15600 nM | IC50 [2]: 17100 nM

Vinorelbine bistartrate
IC50 [1]: 2 nM | IC50 [2]: 72 nM

CN(Cc1cnc2nc(N)nc(N)c2n1)c1ccc(C(=O)N[C@@H](CCC(=O)O)C(=O)O)cc1 [Methotrexate]
IC50 ([1]; Homo sapiens): 10000 nM | IC50 ([2]; Homo sapiens, PAXF546): 66 nM

Nc1ccn([C@@H]2O[C@H](CO)[C@@H](O)C2(F)F)c(=O)n1 [Gemcitabine HCl]
IC50 ([8]; Homo sapiens): 3670 nM | IC50 [3]: 1490 nM | IC50 [4]: 8 nM | IC50 [5]: 15 nM | IC50 [6]: 158 nM | IC50 ([9]; Homo sapiens): 421 nM | IC50 ([1]; Homo sapiens): 5220 nM | IC50 ([2]; Homo sapiens, PAXF546): 97 nM | IC50 [7]: 390 nM

CN(Cc1cnc2nc(N)nc(N)c2n1)c1ccc(C(=O)N[C@@H](CCC(=O)O)C(=O)O)cc1 [Methotrexate Hydrat]
IC50 [5]: 31 nM | IC50 [6]: 160 nM | IC50 [1]: 38 nM | IC50 [2]: 129 nM | IC50 ([7]; PAXF 2005): 10000 nM

O=C1c2c(O)ccc(O)c2C(=O)c2c(NCCNCCO)ccc(NCCNCCO)c21 [Mitoxantron 2HCl]
IC50 [3]: 67 nM | IC50 [4]: 35 nM | IC50 [5]: 35 nM | IC50 [6]: 240 nM | IC50 [1]: 10 nM | IC50 [2]: 187 nM | IC50 ([7]; PAXF 2005): 16 nM

CC(=O)O[C@H]1C(=O)[C@@]2(C)[C@H]([C@H](OC(=O)c3ccccc3)[C@]3(O)C[C@H](OC(=O)[C@H](O)[C@@H](NC(=O)c4ccccc4)c4ccccc4)C(C)=C1C3(C)C)[C@]1(OC(C)=O)CO[C@@H]1C[C@@H]2O [Paclitaxel]
IC50 ([8]; Homo sapiens): 444 nM | IC50 [3]: 144 nM | IC50 [4]: 204 nM | IC50 [5]: 261 nM | IC50 [6]: 117 nM | IC50 ([9]; Homo sapiens): 383 nM | IC50 ([1]; Homo sapiens): 46 nM | IC50 ([2]; Homo sapiens, PAXF546): 441 nM | IC50 [7]: 312 nM

CC(=O)O[C@@]12CO[C@@H]1C[C@H](O)[C@@]1(C)C(=O)[C@H](O)C3=C(C)[C@@H](OC(=O)[C@H](O)[C@@H](NC(=O)OC(C)(C)C)c4ccccc4)C[C@@](O)([C@@H](OC(=O)c4ccccc4)[C@H]21)C3(C)C [Docetaxel]
IC50 [3]: 4 nM | IC50 [4]: 6 nM | IC50 [5]: 100 nM | IC50 [6]: 15 nM | IC50 ([2]; Homo sapiens, PAXF546): 104 nM | IC50 [7]: 100 nM

N.N.[Cl][Pt][Cl] [Cisplatin]
IC50 [8]: 62100 nM | IC50 [3]: 46000 nM | IC50 [4]: 4830 nM | IC50 [5]: 41000 nM | IC50 [6]: 75700 nM | IC50 [9]: 31700 nM | IC50 [1]: 7440 nM | IC50 [2]: 11500 nM | IC50 ([7]; PAXF 2005): 10800 nM

CC[C@]1(O)C[C@H]2CN(CCc3c([nH]c4ccccc34)[C@@](C(=O)OC)(c3cc4c(cc3OC)N(C=O)[C@H]3[C@@](O)(C(=O)OC)[C@H](OC(C)=O)[C@]5(CC)C=CCN6CC[C@]43[C@@H]65)C2)C1 [Vincristine sulfate]
IC50 [3]: 462 nM | IC50 [4]: 300 nM | IC50 [6]: 8 nM | IC50 ([1]; Homo sapiens): 3 nM | IC50 ([2]; Homo sapiens, PAXF546): 247 nM | IC50 [7]: 45 nM

CCN(CC)CCNC(=O)c1c(C)[nH]c(/C=C2\C(=O)Nc3ccc(F)cc32)c1C [Sunitinib malate]
IC50 [3]: 2400 nM | IC50 [4]: 4240 nM | IC50 [5]: 16500 nM | IC50 [6]: 13200 nM | IC50 ([1]; Homo sapiens): 8550 nM | IC50 ([2]; Homo sapiens, PAXF546): 7380 nM | IC50 [7]: 7090 nM

C#Cc1cccc(Nc2ncnc3cc(OCCOC)c(OCCOC)cc23)c1 [Erlotinib HCl]
IC50 [3]: 83600 nM | IC50 [4]: 100000 nM | IC50 [6]: 99100 nM | IC50 ([1]; Homo sapiens): 113000 nM | IC50 ([2]; Homo sapiens, PAXF546): 46100 nM | IC50 [7]: 52700 nM

FOLFIRINOX
median overall survival [10]: 11.1 months

CC(C)C[C@H](NC(=O)[C@H](Cc1ccccc1)NC(=O)c1cnccn1)B(O)O [Bortezomib]
IC50 ([1]; Homo sapiens): 18 nM | IC50 ([2]; Homo sapiens, PAXF546): 5 nM

CC(=O)[C@]1(O)Cc2c(O)c3c(c(O)c2[C@@H](O[C@H]2C[C@H](N)[C@H](O)[C@H](C)O2)C1)C(=O)c1ccccc1C3=O [Idarubicin]
IC50 ([1]; Homo sapiens): 12 nM | IC50 ([2]; Homo sapiens, PAXF546): 131 nM

CC[C@@]1(O)C(=O)OCc2c1cc1n(c2=O)Cc2cc3c(CN(C)C)c(O)ccc3nc2-1 [Topotecan HCl]
IC50 ([1]; Homo sapiens): 42 nM | IC50 ([2]; Homo sapiens, PAXF546): 80 nM

O=c1[nH]cc(F)c(=O)[nH]1 [5-Fluorouracil]
IC50 [3]: 105000 nM | IC50 [4]: 2250 nM | IC50 [6]: 7480 nM | IC50 ([1]; Homo sapiens): 3230 nM | IC50 ([2]; Homo sapiens, PAXF546): 1250 nM | median overall survival [11]: 4.4 months | IC50 [7]: 10300 nM

Bleomycin sulfate
IC50 [1]: 149 nM | IC50 [2]: 10700 nM

O=NN(CCCl)C(=O)NCCO [Elmustin]
IC50 [1]: 375000 nM | IC50 [2]: 722000 nM

Nc1ccn([C@@H]2O[C@H](CO)[C@@H](O)C2(F)F)c(=O)n1 [gemcitabine]
median overall survival [12]: 8.8 months | median overall survival [10]: 6.8 months | one-year survival [13]: 17% | median overall survival [14]: 6.7 months | median overall survival [11]: 5.6 months

CS(=O)(=O)OC[C@H](O)[C@@H](O)COS(C)(=O)=O [Treosulfan]
IC50 ([1]; Homo sapiens): 2020 nM | IC50 ([2]; Homo sapiens, PAXF546): 48100 nM

O=NN(CCCl)C(=O)NC1CCCCC1 [Lomustine]
IC50 ([1]; Homo sapiens): 43600 nM | IC50 ([2]; Homo sapiens, PAXF546): 142000 nM

COc1cc([C@@H]2c3cc4c(cc3[C@@H](O[C@@H]3O[C@@H]5CO[C@@H](C)O[C@H]5[C@H](O)[C@H]3O)[C@H]3COC(=O)[C@H]23)OCO4)cc(OC)c1O [Etoposide]
IC50 ([1]; Homo sapiens): 1500 nM | IC50 ([2]; Homo sapiens, PAXF546): 7400 nM

CCCS(=O)(=O)Nc1ccc(F)c(C(=O)c2c[nH]c3ncc(-c4ccc(Cl)cc4)cc23)c1F [Vemurafenib]
IC50 [3]: 11400 nM | IC50 [4]: 9340 nM | IC50 [5]: 11400 nM | IC50 [6]: 10800 nM | IC50 ([1]; Homo sapiens): 16100 nM | IC50 ([2]; Homo sapiens, PAXF546): 5330 nM | IC50 [7]: 6750 nM

CO[C@@]12[C@H](COC(N)=O)C3=C(C(=O)C(C)=C(N)C3=O)N1C[C@@H]1N[C@@H]12 [Mitomycin C]
IC50 [3]: 678 nM | IC50 [4]: 188 nM | IC50 [6]: 987 nM | IC50 [1]: 1120 nM | IC50 [2]: 465 nM | IC50 ([7]; PAXF 2005): 276 nM

O=C1[O][Pt]2([NH][C@@H]3CCCC[C@H]3[NH]2)[O]C1=O [Oxaliplatin]
IC50 [3]: 99200 nM | IC50 [4]: 1610 nM | IC50 [6]: 34600 nM | IC50 [1]: 994 nM | IC50 [2]: 1240 nM | IC50 ([7]; PAXF 2005): 12500 nM

Nc1nc2[nH]cc(CCc3ccc(C(=O)N[C@@H](CCC(=O)O)C(=O)O)cc3)c2c(=O)[nH]1 [Pemetrexed, dinatrium]
IC50 [1]: 13000 nM | IC50 [2]: 114 nM
